Measurements: patent US20070167450A1, “Agent for treating chronic pelvic pain syndrome” (Astellas Pharma Inc., priority 2003, published 2007)

What was measured:
[1] = tested on: Rat Antigen-Induced Cystitis Model; test: Rat antigen-induced cystitis model: peroxidase activity in bladder extract; type: in vivo, Brown Norway (BN) female rats; conditions: bladder removed after 24 hours, saline group 0%, control group 100%
Description: Efficacy of PDE 4 Inhibitors in Rat Antigen-Induced Cystitis Model
Antigen sensitization was carried out by intraperitoneally administering physiological saline containing ovalbumin (OA, 1 mg/ml)-aluminum hydroxide gel (Alum, 20 mg/ml) to Brown Norway (BN) female rats, at a dose of 1 ml per animal for 3 continuous days. After completion of the sensitization, a urethral catheter was attached to each animal under anesthesia, 3% OA/physiological saline was injected into the bladder to induce cystitis, and the resulting animals were used as the control group. Also, a group in which physiological saline was injected into the bladder of each sensitized rat was used as the physiological saline group. A group in which compound A (3 mg/kg), roflumilast (3 mg/kg) or cilomilast (30 mg/kg) was orally administered 1 hour before the intravesical antigen injection was used as a compound A administration group, a roflumilast administration group or a cilomilast administration group. After 24 hours of the intravesical antigen injection, the bladder was removed under pentobarbital anesthesia, and bladder extract was prepared in accordance with the method of Malley et al. (Physiological Genomics, (USA), 2002, vol. 9, no. 1, pp. 5-13). Peroxidase activity in the bladder extract was measured in accordance with the method of Bradley et al. (The Journal of Investigative Dermatology, (England), March 1982, vol. 78, no. 3, pp. 206-9) using human myeloperoxidase (manufactured by Sigma) as the standard, and the results were expressed by defining the peroxidase activity of the physiological saline group as 0%, and the peroxidase activity of the control group as 100%.
When antigen-induced cystitis was caused by carrying out antigen injection into the bladder of each of the sensitized BN rats, and peroxidase activity in the bladder tissue was measured as one of the indexes of cystitis, increase in the peroxidase activity in the bladder tissue was found in the control group. […]

[2] = tested on: Rat Hydrochloric Acid-Induced Cystitis Model; test: Rat hydrochloric acid-induced cystitis model: intravesical pressure recording; type: in vivo, Brown Norway (BN) female rats; conditions: 1 mg/kg orally once a day for 10 days after 0.4 N HCl into the bladder; measured after 11 days under urethane anesthesia
Description: Efficacy of PDE 4 Inhibitors in Rat Hydrochloric Acid-Induced Cystitis Model
A bladder disorder was induced by attaching a urethral catheter to each of Brown Norway (BN) female rats under ether anesthesia and injecting 0.4 N hydrochloric acid into the bladder (0.15 ml per one rat). Starting on the next of the bladder disorder induction, the compound A (1 mg/kg) or a vehicle (0.5% methyl cellulose aqueous solution) was orally administered once a day for 10 days, and respectively used as a compound A administration group and a control group. Also, a group in which physiological saline was injected into the bladder (0.15 ml per one rat), and the vehicle was orally administered once a day for 10 days starting on the next day, was used as a physiological saline group. After 11 days of the bladder disorder induction, each rat was fixed in the supine position under urethane anesthesia and equipped with a urethral catheter, and via its three-way cock, one end was used as the injection passage and the other end was connected to a pressure transducer (DX-312, manufactured by NIHON KOHDEN). Physiological saline was continuously injected into the bladder (50 μl/min) using an infusion pump (model 22, Harvard), and the intravesical pressure at that time was amplified by a pre-amplifier (AP-621G, manufactured by NIHON KOHDEN) and recorded using a recorder. […] In comparison with this, in the case of the control group, increase in the resting time intravesical pressure was observed, but increase in the bladder contraction pressure at the time of micturition was hardly found, and micturition frequency was high. In the compound A administration group, increase of the resting time intravesical pressure was inhibited, and increase in the intravesical pressure accompanied by the micturition reflex was also observed.

[3] = 3 mg/kg orally 1 hour before intravesical antigen (OA) injection

| Compound | inhibition of the increase of peroxidase activity in the bladder tissue ([1]; 30 mg/kg orally 1 hour before intravesical antigen (OA) injection) [%] | increase in the intravesical pressure accompanied by the micturition reflex [2] | increase of the resting time intravesical pressure [2] | interval of the micturition reflex [2] | inhibition of the increase of peroxidase activity in the bladder tissue [1, 3] [%] |
| --- | --- | --- | --- | --- | --- |
| COc1ccc([C@]2(C#N)CC[C@@H](C(=O)O)CC2)cc1OC1CCCC1 [cilomilast] | 68 |  |  |  |  |
| CCn1c(=O)c(CCC(=O)O)c(-c2cccc(Cl)c2)c2ccc(C)nc21 [compound A, 3-[4-(3-chlorophenyl)-1-ethyl-7-methyl-2-oxo-1,2-dihydro-1,8-naphthyridin-3-yl]propanoic acid] |  | observed | inhibited | almost the same as that of the physiological saline administration group | 72 |
| O=C(Nc1c(Cl)cncc1Cl)c1ccc(OC(F)F)c(OCC2CC2)c1 [roflumilast] |  |  |  |  | 79 |
